Test results reported in patent publication US7358233B2, “Tetronic acid derivative” (Toudai TLO, Ltd, priority 2001, dated 2008).

Assays:
HT-29 cells [1] = assay: Combined use of VST and cisplatin, colony-forming ability of HT-29 cells; format: cell-based; details: glucose starvation condition
From the text: Enhancement of endoplasmic reticulum stress response promotes survival of cells under undernutritive conditions, and at the same time allows cells to acquire resistance to antitumor agents. Therefore, the inventors intended to examine the effect of VST on known antitumor agents. […] Therefore, the combined effect with other pharmaceutical agents could not be duly examined. Thus, cisplatin generally used for solid cancer treatment was used to examine the combined effect, due to its activity on cancer cells that is maintained even under low glucose conditions. Specifically, HT-29 cells were cultured by the above-mentioned method, pretreated for 30 min with VST, and then cultured for 18 hours. The cells were then treated for 4 hours with each concentration of cisplatin, and a week later their colony-forming ability was examined.

HT-29 cells [2] = assay: Antitumor effect against HT-29 cells transplanted into nude mice; format: in vivo; details: HT-29 tumor grown to 100 mm^3 in nude mice; VST through the tail vein (FIG. 15)
Procedure: The antitumor effect of VST at the animal level was examined. Specifically, HT-29 cells were transplanted into nude mice and tumor was grown to 100 mm^3. Subsequently, each concentration of VST was administered through the tail vein, progress of cancer was followed each day thereafter, and the tumor was enucleated to compare its size. […] Furthermore, the combined effect with CDDP (cisplatin) was examined.

SMILES: N.N.[Cl][Pt][Cl] [cisplatin, reference compound]
- activity on colony-forming ability under glucose starvation condition (HT-29 cells [1]): enhance the activity
- antitumor effect (tumor size) (HT-29 cells [2]): sufficient
